Key:
[1] = after application
Source text: Cyclobenzaprine is a 5-HT2 receptor antagonist and its muscle relaxant effect is due to inhibition of serotonergic neurons.

[2] = taken orally; cited from earlier work

CN(C)CCC=C1c2ccccc2C=Cc2ccccc21 [cyclobenzaprine, Cyclobenzaprine]
time to clinical improvement [1]: as early as the first 20 minutes | half life [2]: as long as one to three days | plasma protein binding [2]: highly bound to plasma proteins
